These results are taken from PubChem BioAssay AID256 (DTP/NCI, 2004).

Values joined by “and” are separate entries in the source; they are usually repeats but may differ in a detail not shown here. Identical values can stand only once. Toxic doses and inconclusive results are not listed.

In the experiment the test system is CD2F1 mice, L1210 leukemia ip, survival T/C. The experiment is described as follows: NCI In Vivo Anticancer Drug Screen. Data for tumor model L1210 Leukemia (intraperitoneal) in CD2F1 (CDF1) mice. The note with it: higher = longer survival. In short, it runs like this:
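Each value reflects a quotient of treated over vehicle control outcomes in mice with a transplanted tumor.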

The mark [1] stands for this setting: endpoint: mean survival time, dose: 100.0 mg/kg/injection, schedule: Q01DX001 (ip), vehicle: saline.
[2] abbreviates: endpoint: mean survival time, dose: 100.0 mg/kg/injection, schedule: Q01DX009 (ip), vehicle: saline with Tween-80.
The mark [3] stands for this setting: endpoint: mean survival time, dose: 100.0 mg/kg/injection, schedule: Q04DX002 (ip), vehicle: saline.
[4] abbreviates: endpoint: mean survival time, dose: 100.0 mg/kg/injection, schedule: Q04DX003 (ip), vehicle: saline with Tween-80.
Setting [5] is: endpoint: mean survival time, dose: 200.0 mg/kg/injection, schedule: Q01DX001 (ip), vehicle: saline.
Setting [6] is: endpoint: mean survival time, dose: 200.0 mg/kg/injection, schedule: Q01DX009 (ip), vehicle: saline with Tween-80.
The mark [7] stands for this setting: endpoint: mean survival time, dose: 200.0 mg/kg/injection, schedule: Q04DX002 (ip), vehicle: saline.
Where [8] appears, read: endpoint: mean survival time, dose: 200.0 mg/kg/injection, schedule: Q04DX003 (ip), vehicle: saline with Tween-80.
Setting [9] is: endpoint: mean survival time, dose: 400.0 mg/kg/injection, schedule: Q01DX001 (ip), vehicle: saline.
The mark [10] stands for this setting: endpoint: mean survival time, dose: 400.0 mg/kg/injection, schedule: Q01DX009 (ip), vehicle: saline with Tween-80.
Setting [11] is: endpoint: mean survival time, dose: 400.0 mg/kg/injection, schedule: Q04DX002 (ip), vehicle: saline.
The mark [12] stands for this setting: endpoint: mean survival time, dose: 400.0 mg/kg/injection, schedule: Q04DX003 (ip), vehicle: saline with Tween-80.
Where [13] appears, read: endpoint: mean survival time, dose: 50.0 mg/kg/injection, schedule: Q01DX009 (ip), vehicle: saline with Tween-80.

For `Cc1c(NC(=O)Nc2cc([N+](=O)[O-])ccc2Cl)c(=O)n(-c2ccccc2)n1C`, the T/C reads like this: under setting [1], 96 % of control; under setting [2], 89 % of control and 98 % of control; under setting [3], 93 % of control and 107 % of control; under setting [4], 104 % of control; under setting [5], 86 % of control; under setting [6], 96 % of control and 102 % of control. For the same molecule, the T/C under setting [7] is 95 % of control and 96 % of control; the T/C under setting [8] is 104 % of control; the T/C under setting [9] is 86 % of control; the T/C under setting [10] is 96 % of control; the T/C under setting [11] is 91 % of control and 107 % of control; the T/C under setting [12] is 95 % of control.

Take `Cc1ccc(NC(=O)OCCOc2ccccc2Cl)cc1C`: the T/C runs as follows: under setting [13], 96 % of control; under setting [2], 93 % of control; under setting [6], 93 % of control.

Turning to `N#CC(N)=O`, the T/C reads like this: under setting [3], 97 % of control; under setting [7], 91 % of control; under setting [11], 94 % of control.

In the case of `CCCCN(Cc1ccccc1)CC(O)C[NH-].O=C(O)CC(=O)O.[Pt+2]` (configuration not stated), the T/C is 98 % of control (endpoint: median survival time, dose: 10.0 mg/kg/injection, schedule: Q04DX003 (ip), vehicle: water); 105 % of control (endpoint: median survival time, dose: 20.0 mg/kg/injection, schedule: Q04DX003 (ip), vehicle: water); 101 % of control (endpoint: median survival time, dose: 27.25 mg/kg/injection, schedule: Q04DX003 (ip), vehicle: water); 109 % of control (endpoint: median survival time, dose: 40.0 mg/kg/injection, schedule: Q04DX003 (ip), vehicle: water); 101 % of control (endpoint: median survival time, dose: 54.5 mg/kg/injection, schedule: Q04DX003 (ip), vehicle: water); 105 % of control (endpoint: median survival time, dose: 80.0 mg/kg/injection, schedule: Q04DX003 (ip), vehicle: water). For the setting “endpoint: median survival time, dose: 109.0 mg/kg/injection, schedule: Q04DX003 (ip), vehicle: water”, the T/C was 108 % of control.

As to `CN(C)C1C(=O)C(C(=O)NP(=O)(NCCCO)N(CCCl)CCCl)=C(O)C2(O)C(=O)C3=C(O)c4c(O)cccc4C(C)(O)C3CC12` (configuration not stated), the T/C is, setting by setting: (endpoint: mean survival time, dose: 1.56 mg/kg/injection, schedule: Q01DX001 (ip), vehicle: saline with Tween-80) 102 % of control; (endpoint: mean survival time, dose: 3.12 mg/kg/injection, schedule: Q01DX001 (ip), vehicle: saline with Tween-80) 96 % of control; (endpoint: mean survival time, dose: 15.62 mg/kg/injection, schedule: Q01DX001 (ip), vehicle: saline with Tween-80) 104 % of control; (endpoint: mean survival time, dose: 31.25 mg/kg/injection, schedule: Q01DX001 (ip), vehicle: saline with Tween-80) 100 % of control; (endpoint: mean survival time, dose: 62.5 mg/kg/injection, schedule: Q01DX001 (ip), vehicle: saline with Tween-80) 100 % of control and 106 % of control; (endpoint: mean survival time, dose: 125.0 mg/kg/injection, schedule: Q01DX001 (ip), vehicle: saline with Tween-80) 124 % of control and 100 % of control. The T/C runs as follows: (endpoint: mean survival time, dose: 250.0 mg/kg/injection, schedule: Q01DX001 (ip), vehicle: saline with Tween-80) 122 % of control and 110 % of control; (endpoint: mean survival time, dose: 500.0 mg/kg/injection, schedule: Q01DX001 (ip), vehicle: saline with Tween-80) 156 % of control; (endpoint: median survival time, dose: 25.0 mg/kg/injection, schedule: Q01DX009 (ip), vehicle: saline with Tween-80) 110 % of control; (endpoint: median survival time, dose: 50.0 mg/kg/injection, schedule: Q01DX009 (ip), vehicle: saline with Tween-80) 118 % of control; (endpoint: median survival time, dose: 100.0 mg/kg/injection, schedule: Q01DX009 (ip), vehicle: saline with Tween-80) 157 % of control; (endpoint: median survival time, dose: 200.0 mg/kg/injection, schedule: Q01DX009 (ip), vehicle: saline with Tween-80) 201 % of control and 202 % of control. Further, the T/C (endpoint: median survival time, dose: 400.0 mg/kg/injection, schedule: Q01DX009 (ip), vehicle: saline with Tween-80) is 116 % of control.

For `Nc1nc(N)c2c(n1)CN(c1ccc(Cl)cc1)C2`, the T/C was 104 % of control (endpoint: mean survival time, dose: 75.0 mg/kg/injection, schedule: Q01DX001 (ip), vehicle: saline); 96 % of control (endpoint: mean survival time, dose: 150.0 mg/kg/injection, schedule: Q01DX001 (ip), vehicle: saline); 98 % of control (endpoint: mean survival time, dose: 300.0 mg/kg/injection, schedule: Q01DX001 (ip), vehicle: saline).

On to `N#C/C(=C\c1cc(Cl)cc(Cl)c1O)c1ccc([N+](=O)[O-])cc1`, for which the T/C reads like this: under setting [13], 89 % of control; under setting [2], 95 % of control; under setting [6], 96 % of control.

`O=C(CBr)Nc1ccc2[nH]c3cnccc3c2c1`: the T/C was 101 % of control (endpoint: mean survival time, dose: 100.0 mg/kg/injection, schedule: Q04DX002 (ip), vehicle: saline with Tween-80); 104 % of control (endpoint: mean survival time, dose: 200.0 mg/kg/injection, schedule: Q04DX002 (ip), vehicle: saline with Tween-80); 97 % of control (endpoint: mean survival time, dose: 400.0 mg/kg/injection, schedule: Q04DX002 (ip), vehicle: saline with Tween-80).

On to `O=C(O)CC(C(=O)O)=C(c1ccccc1)c1ccccc1`, for which the T/C was 98 % of control under setting [1], 95 % of control under setting [5] and 101 % of control under setting [9].

On to `OCC1OC(n2cnc3c(NCCc4ccc(O)c(O)c4)ncnc32)C(O)C1O` (configuration not stated), for which the T/C is 104 % of control (endpoint: mean survival time, dose: 12.5 mg/kg/injection, schedule: Q01DX005 (ip), vehicle: saline with Tween-80); 109 % of control (endpoint: mean survival time, dose: 25.0 mg/kg/injection, schedule: Q01DX005 (ip), vehicle: saline with Tween-80); 116 % of control (endpoint: mean survival time, dose: 50.0 mg/kg/injection, schedule: Q01DX005 (ip), vehicle: saline with Tween-80).

On to `Cc1ccc(P(=O)(O)O)c([N+](=O)[O-])c1`, for which the T/C is, setting by setting: (endpoint: mean survival time, dose: 50.0 mg/kg/injection, schedule: Q04DX003 (ip), vehicle: saline) 105 % of control; (endpoint: mean survival time, dose: 100.0 mg/kg/injection, schedule: Q04DX003 (ip), vehicle: saline) 95 % of control; (endpoint: mean survival time, dose: 200.0 mg/kg/injection, schedule: Q04DX003 (ip), vehicle: saline) 105 % of control.

Turning to `COC(=O)Nc1ccc(NC(=O)c2cscn2)c(NC(=O)OC)n1`, the T/C is 98 % of control under setting [4] and 91 % of control under setting [8].

With `O=C(O)CS(=O)c1ccc(Cl)cc1` (configuration not stated), the T/C (endpoint: mean survival time, dose: 50.0 mg/kg/injection, schedule: Q01DX001 (ip), vehicle: saline with Tween-80) was 104 % of control; the T/C (endpoint: mean survival time, dose: 100.0 mg/kg/injection, schedule: Q01DX001 (ip), vehicle: saline with Tween-80) is 95 % of control; the T/C (endpoint: mean survival time, dose: 200.0 mg/kg/injection, schedule: Q01DX001 (ip), vehicle: saline with Tween-80) is 88 % of control.

For the molecule `Nc1ncc2ccccc2c1-c1ccc(NC(=O)CN(CCCl)CCCl)cc1`, the T/C runs as follows: (endpoint: mean survival time, dose: 25.0 mg/kg/injection, schedule: Q04DX003 (ip), vehicle: other) 106 % of control; (endpoint: mean survival time, dose: 50.0 mg/kg/injection, schedule: Q04DX003 (ip), vehicle: other) 106 % of control; (endpoint: mean survival time, dose: 100.0 mg/kg/injection, schedule: Q04DX003 (ip), vehicle: other) 103 % of control; (endpoint: mean survival time, dose: 200.0 mg/kg/injection, schedule: Q04DX003 (ip), vehicle: other) 109 % of control; (endpoint: mean survival time, dose: 400.0 mg/kg/injection, schedule: Q04DX003 (ip), vehicle: other) 112 % of control.

In the case of `CN(C)/C=N/N=C1c2ccccc2-c2ccccc21`, the T/C runs as follows: under setting [2], 93 % of control; under setting [4], 100 % of control; under setting [6], 98 % of control; under setting [8], 94 % of control; under setting [10], 90 % of control; under setting [12], 101 % of control.
